# Test results: patent US20260234187A1, “ANTIMICROBIAL PEPTIDES” (MATERIAS S.R.L., priority 2020, published 2026)
# Read-outs that look alike come from different tables or passages of the source. Where no end group is shown, it is not given here.
# Key:
# [1] = type: physicochemical; set-up: α-helix (Bestsel) / β-sheet (Bestsel) / Random (Bestsel): unit not given here; conditions: 3 mM SDS; for Random (CONTIN-LL) / α-helix (CONTIN-LL) / β-sheet (CONTIN-LL): after a 24-hour incubation
# Experimental: 0.1 g/L of RiLK1 peptide was dissolved in 10 mM concentration solutions at different pHs, in particular: glycine-HCL buffer (pH 2); sodium acetate buffer (pH 4); tris-HCL buffer (pH 7); glycine-NaOH buffer (pH 9). After a 1-hour incubation at 25° C., samples of each solution containing 3 mM SDS were prepared.
# [2] = test system: Listeria monocytogenes LM2; type: cell-based; conditions: LM2, 6 h
# Experimental: The bactericidal activity of the RiLK1 peptide was assessed against both Gram positive (Listeria monocytogenes LM2 and Staphilococcus aureus) and Gram negative (Salmonella typhimurium and Escherichia coli) pathogenic bacteria. The assessment of the concentration of the two peptides capable of inhibiting 50% of bacterial growth (IC50) was performed by the broth microdilution assay as described in Wang H X and Ng TB (2003, Peptides 24:969-972). The standard deviations and the IC50s for triplicate incubations of each plate were determined using GraphPad Prism version 6.00 (Graph-Pad Software, La Jolla California USA). All experimental conditions investigated used the plate count method to estimate the bactericidal activity of the peptides. Specifically, the numbers of colonies grown on agar plates seeded with the bacterial suspensions in the absence or presence of the individual peptide dilutions were counted and compared. The standard deviations of the triplicate incubations of each plate were determined using statistical software. A control stock suspension was prepared in which 10^3 CFUs of L. monocytogenes were inoculated in 10 ml of Half Fraser Broth and serial dilutions (100 to 0.01 μM) of the suspension were performed. […]
# L. monocytogenes (LM2) = type: cell-based, Listeria monocytogenes
# Experimental: (§1) The evaluation of the Minimum Bactericidal Concentration (MBC), i.e., the lowest concentration of antimicrobial agent capable of 99.9% inhibition of bacterial growth on plates, was carried out as described in Bílikova et al, (2015, Peptides 68:190-196). […] It should be noted that the peptide object of the present invention is more powerful and efficient than the peptide IDR-1018-K6 (described in patent application WO2019012158) against the pathogenic bacteria L. monocytogenes and S. typhimurium, with bactericidal concentration values 4-fold and 7-fold lower, respectively, compared to those shown by IDR-1018-K6.
# E. coli [3] = type: cell-based, Escherichia coli
# Experimental: as §1
# E. coli [4] = test: bactericidal activity at 15 μM, CFU versus control; type: cell-based
# Experimental: (§2) The bactericidal activity of further AMP peptides according to the invention, in particular of the RiLK31 peptide (RLRWVKIWKK, SEQ ID NO:31) and the RiLK3 peptide (RLRWVRIWRR, SEQ ID NO:3), was tested. The bactericidal activity was expressed as a percentage of viable cells in terms of CFU (Colony Forming Units) in a bacterial sample exposed to each peptide compared to those in a control bacterial sample in the absence of the peptide. All tests were carried out with the same peptide concentration, corresponding to 15 μM.
# Listeria = test: bactericidal activity at 15 μM, CFU versus control; type: cell-based
# Experimental: as §2
# Salmonella = test: bactericidal activity at 15 μM, CFU versus control; type: cell-based
# Experimental: as §2
# Staphylococcus = test: bactericidal activity at 15 μM, CFU versus control; type: cell-based
# Experimental: as §2
substance,measurement,setting,value
"RLKWVRIWRR-NH2 [RiLK1, RLKWVRIWRR]",Random (Bestsel),"[1]; pH 2, t = 0",44.4
same,Random (DichroWeb CONTIN-LL),"[1]; pH 2, t = 0",39%
same,α-helix (Bestsel),"[1]; pH 2, t = 0",18.5
same,α-helix (DichroWeb CONTIN-LL),"[1]; pH 2, t = 0",22%
same,β-sheet (Bestsel),"[1]; pH 2, t = 0",37
same,β-sheet (DichroWeb CONTIN-LL),"[1]; pH 2, t = 0",39%
same,Random (Bestsel),"[1]; pH 2, t = 24 hours",44.3
same,Random (DichroWeb CONTIN-LL),"[1]; pH 2, t = 24 hours",39%
same,α-helix (Bestsel),"[1]; pH 2, t = 24 hours",13.2
same,α-helix (DichroWeb CONTIN-LL),"[1]; pH 2, t = 24 hours",17%
same,β-sheet (Bestsel),"[1]; pH 2, t = 24 hours",42.5
same,β-sheet (DichroWeb CONTIN-LL),"[1]; pH 2, t = 24 hours",44%
same,Random (Bestsel),"[1]; pH 4, t = 0",52.4
same,Random (DichroWeb CONTIN-LL),"[1]; pH 4, t = 0",36%
same,α-helix (Bestsel),"[1]; pH 4, t = 0",7.7
same,α-helix (DichroWeb CONTIN-LL),"[1]; pH 4, t = 0",23%
same,β-sheet (Bestsel),"[1]; pH 4, t = 0",39.8
same,β-sheet (DichroWeb CONTIN-LL),"[1]; pH 4, t = 0",41%
same,Random (Bestsel),"[1]; pH 4, t = 24 hours",41.2
same,Random (DichroWeb CONTIN-LL),"[1]; pH 4, t = 24 hours",35%
same,α-helix (Bestsel),"[1]; pH 4, t = 24 hours",13.3
same,α-helix (DichroWeb CONTIN-LL),"[1]; pH 4, t = 24 hours",24%
same,β-sheet (Bestsel),"[1]; pH 4, t = 24 hours",45.5
same,β-sheet (DichroWeb CONTIN-LL),"[1]; pH 4, t = 24 hours",41%
same,Random (Bestsel),"[1]; pH 7, t = 0",45.4
same,Random (DichroWeb CONTIN-LL),"[1]; pH 7, t = 0",36%
same,α-helix (Bestsel),"[1]; pH 7, t = 0",15
same,α-helix (DichroWeb CONTIN-LL),"[1]; pH 7, t = 0",25%
same,β-sheet (Bestsel),"[1]; pH 7, t = 0",39.5
same,β-sheet (DichroWeb CONTIN-LL),"[1]; pH 7, t = 0",39%
same,Random (Bestsel),"[1]; pH 7, t = 24 hours",40.8
same,Random (DichroWeb CONTIN-LL),"[1]; pH 7, t = 24 hours",37%
same,α-helix (Bestsel),"[1]; pH 7, t = 24 hours",15.5
same,α-helix (DichroWeb CONTIN-LL),"[1]; pH 7, t = 24 hours",19%
same,β-sheet (Bestsel),"[1]; pH 7, t = 24 hours",43.8
same,β-sheet (DichroWeb CONTIN-LL),"[1]; pH 7, t = 24 hours",44%
same,Random (Bestsel),"[1]; pH 9, t = 0",44.4
same,Random (DichroWeb CONTIN-LL),"[1]; pH 9, t = 0",39%
same,α-helix (Bestsel),"[1]; pH 9, t = 0",13.7
same,α-helix (DichroWeb CONTIN-LL),"[1]; pH 9, t = 0",19%
same,β-sheet (Bestsel),"[1]; pH 9, t = 0",42
same,β-sheet (DichroWeb CONTIN-LL),"[1]; pH 9, t = 0",42%
same,Random (Bestsel),"[1]; pH 9, t = 24 hours",42.9
same,Random (DichroWeb CONTIN-LL),"[1]; pH 9, t = 24 hours",24%
same,α-helix (Bestsel),"[1]; pH 9, t = 24 hours",13.4
same,α-helix (DichroWeb CONTIN-LL),"[1]; pH 9, t = 24 hours",29%
same,β-sheet (Bestsel),"[1]; pH 9, t = 24 hours",43.8
same,β-sheet (DichroWeb CONTIN-LL),"[1]; pH 9, t = 24 hours",47%
same,Random (CONTIN-LL),[1]; Table 8: pH 2,39%
same,α-helix (CONTIN-LL),[1]; Table 8: pH 2,22%
same,β-sheet (CONTIN-LL),[1]; Table 8: pH 2,39%
same,Random (CONTIN-LL),[1]; Table 8: pH 4,36%
same,α-helix (CONTIN-LL),[1]; Table 8: pH 4,23%
same,β-sheet (CONTIN-LL),[1]; Table 8: pH 4,41%
same,Random (CONTIN-LL),[1]; Table 8: pH 7,36%
same,α-helix (CONTIN-LL),[1]; Table 8: pH 7,25%
same,β-sheet (CONTIN-LL),[1]; Table 8: pH 7,39%
same,Random (CONTIN-LL),[1]; Table 8: pH 9,39%
same,α-helix (CONTIN-LL),[1]; Table 8: pH 9,19%
same,β-sheet (CONTIN-LL),[1]; Table 8: pH 9,42%
same,IC50,[2],460 nM
same,bactericidal concentration lower compared to IDR-1018-K6,L. monocytogenes (LM2); L. monocytogenes,4 fold
same,MBC,L. monocytogenes (LM2); L. monocytogenes (LM2),2 µM
same,MBC,E. coli [3],2 µM
same,bactericidal activity,E. coli [4],100%
same,bactericidal activity,Listeria,99.5%
same,bactericidal activity,Salmonella,100%
same,bactericidal activity,Staphylococcus,96.9%^
